Patent US10174067B2, “Type of cytidine derivative and application thereof” (priority 2014, dated 2019)
Marks after values point to notes of the source that are not given here.

Columns and labels:
[1] = Procedure: To determine the growth inhibition effect and toxicity of the cytidine derivative samples of the present invention on the transplanted tumor of nude mice bearing colon cancer HCT-116.
The corresponding amount of test substance was taken in a 5 mL glass tube and dissolved in ethanol with a 5 mm magnetic stirrer for stirring. After dissolving completely, Cremophor EL was added with continuous stirring. The marked amount of saline was added and mixed evenly before use. The volume ratio of ethanol, Cremophor EL, and physiological saline was 5:5:90.
Varieties and lines; Balb/c Nude mice; level: SPF; sex: female.
4.2 Animal inoculation and grouping: Each nude mouse was inoculated subcutaneously with 0.1 mL of cell suspension (3×10^6 cell/mouse) at right side of hind limb in a sterile stale. When the tumor grew to about 60-150 mm^3, the nude mice with similar tumor volume and desirable shape were selected (it would be better to select single spherical shape, no irregular shape or multiple tumors grouped together) for grouping, 6 mice a group. The grouping is as follows:
The control group, namely the model control group, was injected with a mixture of ethanol, Cremophor EL, and saline (5:5:90).
Those mice were weighed three times a week.
All clinical symptoms of each animal should be recorded at the beginning of the test and during the test. The observations should be made at the same time each day.
An animal would be killed by CO2 when its weight loss was more than 20%, when it was about to die, or when its tumor volume exceeded 2800 mm^3. The tumor was separated and weighed, and the animal was autopsied and observed to evaluate and record whether there were pathological changes in the organs.
The data were expressed as Mean±SEM unless specially provided; Non-pairing T test was performed for the data between the two groups. P<0.05 was considered as significant difference.

[2] = system: HCT-116 colon cancer xenografts; assay: Tumor growth inhibition of HCT-116 colon cancer xenografts in tumor-bearing nude mice (tumor volume, TGI %, RTV, T/C %); type: in vivo, Balb/c Nude mice
Procedure: 4.1 Tumor cells: colon cancer HCT-116 cells, purchased from the Institute of Cell Biology, Chinese Academy of Sciences. The cells were incubated by F-12 medium (containing 10% FBS) in carbon dioxide incubator at 37° C. and in saturated humidity, with 5% CO2 and 95% air in volume fraction. Before inoculation, the cells at logarithmic phase were taken, and digested with 0.25% trypsin, washed once with PBS and resuspended in PBS for counting. The cells were resuspended in serum-free medium and adjusted to about 3×10^7 cell/mL.
The grouping is as follows:
The formations of tumor at the inoculation site of each group of nude mice were observed. The diameter of tumor nodule (D) was measured three times a week with round hole ruler, and the volume of tumor nodule (V) was calculated according to the following formula: […].
Anti-tumor activity was evaluated by tumor growth inhibition rate TGI (%) and relative tumor proliferation rate T/C (%).
The relative tumor volume (RTV) was calculated as: RTV=Vt/V0, where V0 was the tumor volume when they were grouped and administered, and Vt was the tumor volume at the time of measurement.
The relative proliferation rate T/C (%) was calculated as: […].
TRTV: RTV of the treatment group; CRTV: RTV of the control group.
P<0.05 was considered as significant difference.

[3] = Day 0, G3-G9 groups, single IP dose, Mean±SEM
[4] = Day 4, G3-G9 groups, single IP dose, Mean±SEM
[5] = Day 6, G3-G9 groups, single IP dose, Mean±SEM
[6] = Day 8, G3-G9 groups, single IP dose, Mean±SEM
[7] = Day 11, G3-G9 groups, single IP dose, Mean±SEM
[8] = Day 13, G3-G9 groups, single IP dose, Mean±SEM
[9] = Day 15, G3-G9 groups, single IP dose, Mean±SEM
[10] = Day 18, G3-G9 groups, single IP dose, Mean±SEM
[11] = Day 20, G3-G9 groups, single IP dose, Mean±SEM
[12] = Day 22, G3-G9 groups, single IP dose, Mean±SEM

Question: With `CC(C)(C)OC(=O)Nc1ccn([C@@H]2O[C@H](COC(=O)Cn3cnc([N+](=O)[O-])c3)[C@@H](O)C2(F)F)c(=O)n1` [Compound G9, 5′-O-[2-(4-nitro-1H-imidazole)acetate]-4-N-(tert-butoxycarbonyl)-2′-deoxy-2′,2′-difluorocytidine] as the compound, how does the “Weight change rate, Day 0” value [1, 3] read?
Answer: 0.00 ± 0.00%

Question: And the “Weight of mice, Day 0” value [1, 3]?
Answer: 20.55 ± 0.56 g

Question: And the “Weight change rate, Day 4” value [1, 4]?
Answer: −0.08 ± 3.14%

Question: And the “Weight of mice, Day 4” value [1, 4]?
Answer: 20.48 ± 0.57 g

Question: What about the “Weight change rate, Day 6” value [1, 5] of the same compound?
Answer: 2.53 ± 2.85%

Question: And the “Weight of mice, Day 6” value [1, 5]?
Answer: 21.02 ± 0.48 g

Question: What about the “Weight change rate, Day 8” value [1, 6] of the same compound?
Answer: 3.54 ± 3.17%

Question: What about the “Weight of mice, Day 8” value [1, 6] of the same compound?
Answer: 21.22 ± 0.51 g

Question: What about the “Weight change rate, Day 11” value [1, 7] of the same compound?
Answer: 5.18 ± 2.98%

Question: And the “Weight of mice, Day 11” value [1, 7]?
Answer: 21.55 ± 0.43 g

Question: What about the “Weight change rate, Day 13” value [1, 8] of the same compound?
Answer: 7.65 ± 3.18%

Question: And the “Weight of mice, Day 13” value [1, 8]?
Answer: 22.05 ± 0.42 g

Question: And the “Weight change rate, Day 15” value [1, 9]?
Answer: 5.50 ± 3.26%

Question: And the “Weight of mice, Day 15” value [1, 9]?
Answer: 21.60 ± 0.33 g

Question: What about the “Weight change rate, Day 18” value [1, 10] of the same compound?
Answer: 3.38 ± 3.55%

Question: What about the “Weight of mice, Day 18” value [1, 10] of the same compound?
Answer: 21.17 ± 0.46 g

Question: What about the “Weight change rate, Day 20” value [1, 11] of the same compound?
Answer: 2.91 ± 3.85%

Question: And the “Weight of mice, Day 20” value [1, 11]?
Answer: 21.05 ± 0.36 g

Question: What about the “Weight change rate, Day 22” value [1, 12] of the same compound?
Answer: 8.18 ± 4.15%

Question: And the “Weight of mice, Day 22” value [1, 12]?
Answer: 22.13 ± 0.47 g

Question: And the “Day 22 Mortality” value ([1]; Day 22, single IP dose (mg/kg))?
Answer: 0%

Question: And the clinical symptoms ([1]; after single IP dose, compared with model control group)?
Answer: no significant differences in clinical symptoms

Question: What about the “Day 0 (RTV)” value [2, 3] of the same compound?
Answer: 1.00 ± 0.00

Question: And the “Tumor volume, Day 0” value [2, 3]?
Answer: 42.31 ± 7.52** mm^3

Question: And the “Day 4 (TGI %)” value ([2]; Day 4, G3-G9 groups, single IP dose)?
Answer: 80.77%

Question: And the “Day 4 (RTV)” value [2, 4]?
Answer: 1.21 ± 0.16

Question: What about the “Tumor volume, Day 4” value [2, 4] of the same compound?
Answer: 51.25 ± 10.24** mm^3

Question: And the “Day 6 (TGI %)” value ([2]; Day 6, G3-G9 groups, single IP dose)?
Answer: 80.67%

Question: And the “Day 6 (RTV)” value [2, 5]?
Answer: 1.82 ± 0.40

Question: What about the “Tumor volume, Day 6” value [2, 5] of the same compound?
Answer: 81.69 ± 23.70** mm^3

Question: What about the “Day 8 (TGI %)” value ([2]; Day 8, G3-G9 groups, single IP dose) of the same compound?
Answer: 79.22%

Question: What about the “Day 8 (RTV)” value [2, 6] of the same compound?
Answer: 2.72 ± 0.82

Question: What about the “Tumor volume, Day 8” value [2, 6] of the same compound?
Answer: 109.19 ± 29.60** mm^3

Question: And the “Day 11 (TGI %)” value ([2]; Day 11, G3-G9 groups, single IP dose)?
Answer: 76.07%

Question: What about the “Day 11 (RTV)” value [2, 7] of the same compound?
Answer: 4.91 ± 1.08

Question: And the “Tumor volume, Day 11” value [2, 7]?
Answer: 192.42 ± 37.84** mm^3

Question: What about the “Day 13 (TGI %)” value ([2]; Day 13, G3-G9 groups, single IP dose) of the same compound?
Answer: 72.93%

Question: And the “Day 13 (RTV)” value [2, 8]?
Answer: 8.16 ± 1.87

Question: And the “Tumor volume, Day 13” value [2, 8]?
Answer: 314.26 ± 60.92** mm^3

Question: What about the “Day 15 (TGI %)” value ([2]; Day 15, G3-G9 groups, single IP dose) of the same compound?
Answer: 60.81%

Question: And the “Day 15 (RTV)” value [2, 9]?
Answer: 13.83 ± 2.98

Question: And the “Tumor volume, Day 15” value [2, 9]?
Answer: 553.69 ± 115.02** mm^3

Question: And the “Day 18 (TGI %)” value ([2]; Day 18, G3-G9 groups, single IP dose)?
Answer: 51.00%

Question: What about the “Day 18 (RTV)” value [2, 10] of the same compound?
Answer: 23.10 ± 5.36

Question: And the “Tumor volume, Day 18” value [2, 10]?
Answer: 907.03 ± 187.09** mm^3

Question: And the “Day 20 (TGI %)” value ([2]; Day 20, G3-G9 groups, single IP dose)?
Answer: 42.39%

Question: And the “Day 20 (RTV)” value [2, 11]?
Answer: 31.85 ± 7.62

Question: What about the “Tumor volume, Day 20” value [2, 11] of the same compound?
Answer: 1221.09 ± 228.29** mm^3

Question: And the “Day 22 (RTV)” value [2, 12]?
Answer: 42.35 ± 10.48

Question: And the “Tumor volume, Day 22” value [2, 12]?
Answer: 1607.01 ± 297.45** mm^3

Question: What about the “relative tumor volume compared with the model control group” value ([2]; G4 and G5 Day 4 to Day 18, G7 Day 4 to Day 15 (p<0.05-0.01), G9 only Day 4 (p<0.05)) of the same compound?
Answer: reduced significantly

Question: And the “maximum value of TGI %” value ([2]; day of maximum: G3 Day 8, G4 Day 11, G5 Day 11, G9 Day 4, G7 Day 8, single IP)?
Answer: 80.77%
